# In patent US20240174603A1 (Rappta Therapeutics Oy, priority 2021, published 2024):
# Tested on: LNCaP cells
# Assay: LNCaP cell viability assay (MTS)
# Assay type: cell-based
# Settings: Homo sapiens, LNCaP, 48 h, LNCaP cell line
# Experimental: LNCaP cell line was used for the cell viability assay. LNCaP cells were plated in 96-well plates at a density of 5000 cells per well. After 24 hours of plating, the cells were treated with increasing doses of compound (e.g., compounds 1-269) ranging from 1 μM to 80 μM. Relative cell numbers were analyzed after 48 hours using 3-(4,5-dimethylthiazol-2-yl)-5-(3-carboxymethoxyphenyl)-2-(4-sulfophenyl)-2H-tetrazolium (MTS) assay (Promega) according to the manufacturer's instructions.
# The cell viability data was analyzed with GraphPad Prism software. The values were log transformed and analyzed with non-linear regression (curve-fit) using log(inhibitor) vs. response-variable slope (four parameters) and constraining the bottom to equal zero. Unless otherwise indicated, the GI50 values provided in Table 113 correspond to the LNCaP cell viability assays.
row,Compound,GI50
1,"CN(C)CC(NS(=O)(=O)c1ccc(Oc2ccc(C(F)(F)F)cc2)cc1)c1cccc(C(F)(F)F)c1 (centres unmarked) [Compound 193, N-(2-(dimethylamino)-1-(3-(trifluoromethyl)phenyl)ethyl)-4-(4-(trifluoromethyl)phenoxy)benzenesulfonamide]",19.6 µM
2,"CC(C)c1ccc(S(=O)(=O)NC(CN(C)C)c2ccc(Cl)c(Cl)c2)cc1 (centres unmarked) [Compound 213, N-(1-(3,4-dichlorophenyl)-2-(dimethylamino)ethyl)-4-isopropylbenzenesulfonamide]",25.2 µM
3,"CC(C)(C)OC(=O)NC[C@@H](NS(=O)(=O)c1ccc(OC(F)(F)F)cc1)c1ccccc1 [Compound 115, tert-butyl (S)-(2-phenyl-2-((4-(trifluoromethoxy)phenyl)sulfonamido)ethyl)carbamate]",51.6 µM
4,"CCOC(=O)C(CC1CC=CCC1)NS(=O)(=O)c1ccc(OC(F)(F)F)cc1 (centres unmarked) [Compound 13, Ethyl 3-(cyclohex-3-en-1-yl)-2-((4-(trifluoromethoxy)phenyl)sulfonamido)propanoate]",53.5 µM
5,"CN(Cc1ccccc1Br)C(=O)CCNS(=O)(=O)c1ccc(OC(F)(F)F)cc1 [Compound 48, N-(2-bromobenzyl)-N-methyl-3-((4-(trifluoromethoxy)phenyl)sulfonamido)propenamide]",43 µM
6,"CN(C)CC(NS(=O)(=O)c1ccc(Cl)cc1)c1ccc(Cl)c(Cl)c1 (centres unmarked) [Compound 164, 4-chloro-N-(1-(3,4-dichlorophenyl)-2-(dimethylamino)ethyl)benzenesulfonamide]",28.2 µM
7,"Cc1ccc(CNS(=O)(=O)c2ccc(OC(F)(F)F)cc2)c(OCC(C)C)c1 [Compound 74, N-(2-isobutoxy-4-methylbenzyl)-4-(trifluoromethoxy)benzenesulfonamide]",60 µM
8,"O=S(=O)(NCCCN(Cc1ccco1)CC1CCCO1)c1ccc(OC(F)(F)F)cc1 (centres unmarked) [Compound 79, N-(3-((furan-2-ylmethyl)((tetrahydrofuran-2-yl)methyl)amino)propyl)-4-(trifluoromethoxy)benzenesulfonamide]",49 µM
9,"CN(C)CC(NS(=O)(=O)c1ccc(Nc2ccccc2)cc1)c1ccc(Cl)c(Cl)c1 (centres unmarked) [Compound 188, N-(1-(3,4-dichlorophenyl)-2-(dimethylamino)ethyl)-4-(phenylamino)benzenesulfonamide]",13.6 µM
10,"CN1CCN(CC(NS(=O)(=O)c2ccc(Oc3ccccc3)cc2)c2ccc(Cl)cc2)CC1 (centres unmarked) [Compound 234, N-(1-(4-chlorophenyl)-2-(4-methylpiperazin-1-yl)ethyl)-4-phenoxybenzenesulfonamide]",12.1 µM
11,"CS(=O)(=O)c1cc(CNS(=O)(=O)c2ccc(OC(F)(F)F)cc2)cc(C(F)(F)F)c1 [Compound 82, N-(3-(methylsulfonyl)-5-(trifluoromethyl)benzyl)-4-(trifluoromethoxy)benzenesulfonamide]",64 µM
12,"CCC(C#N)Oc1cccc(CNS(=O)(=O)c2ccc(OC(F)(F)F)cc2)c1 (centres unmarked) [Compound 52, N-(3-(1-cyanopropoxy)benzyl)-4-(trifluoromethoxy)benzenesulfonamide]",72 µM
13,COC(=O)C(C)C(NS(=O)(=O)c1ccc(OC(F)(F)F)cc1)c1ccccc1 (centres unmarked) [Compound 23],43.1 µM
14,"CC(C)CC(NS(=O)(=O)c1ccc(OC(F)(F)F)cc1)C(=O)Nc1nccs1 (centres unmarked) [Compound 109, 4-methyl-N-(thiazol-2-yl)-2-((4-(trifluoromethoxy)phenyl)sulfonamido)pentanamide]",25 µM
15,"CN(C)CC(NS(=O)(=O)c1ccc(OC(F)(F)F)c(C#N)c1)c1ccc(Cl)c(Cl)c1 (centres unmarked) [Compound 240, 3-cyano-N-(1-(3,4-dichlorophenyl)-2-(dimethylamino)ethyl)-4-(trifluoromethoxy)benzenesulfonamide]",24.6 µM
16,"CCCCC(NS(=O)(=O)c1ccc(OC(F)(F)F)cc1)C(=O)OC(C)(C)C (centres unmarked) [Compound 5, Tert-butyl 2-((4-(trifluoromethoxy)phenyl)sulfonamido)hexanoate]",39.5 µM
17,"CCOC(=O)[C@@H](Cc1ccc(OC)cc1)NS(=O)(=O)c1ccc(OC(F)(F)F)cc1 [Compound 43, Ethyl (R)-3-(4-methoxyphenyl)-2-((4-(trifluoromethoxy)phenyl)sulfonamido)propanoate]",72 µM
18,"CN(C)CC(NS(=O)(=O)c1cccc(-c2ccccc2)c1)c1ccc(Cl)c(Cl)c1 (centres unmarked) [Compound 144, N-(1-(3,4-dichlorophenyl)-2-(dimethylamino)ethyl)-[1,1′-biphenyl]-3-sulfonamide]",14.4 µM
19,COC(=O)CC(NS(=O)(=O)c1ccc(OC(F)(F)F)cc1)c1ccc(OC)c(Br)c1 (centres unmarked) [Compound 22],39.1 µM
20,"CN(C)CC(NS(=O)(=O)c1ccc(OC(F)(F)F)c([N+](=O)[O-])c1)c1ccc(Cl)c(Cl)c1 (centres unmarked) [Compound 175, N-(1-(3,4-dichlorophenyl)-2-(dimethylamino)ethyl)-3-nitro-4-(trifluoromethoxy)benzenesulfonamide]",3.23 µM
21,"CN(C)CC(NS(=O)(=O)c1ccc(NC2CCCCC2)cc1)c1ccc(Cl)c(Cl)c1 (centres unmarked) [Compound 268, 4-(cyclohexylamino)-N-(1-(3,4-dichlorophenyl)-2-(dimethylamino)ethyl)benzenesulfonamide]",15.5 µM
22,"COc1cc(C2(CNS(=O)(=O)c3ccc(OC(F)(F)F)cc3)CCCC2)ccc1OC(F)F [Compound 33, N-((1-(4-(difluoromethoxy)-3-methoxyphenyl)cyclopentyl)methyl)-4-(trifluoromethoxy)benzenesulfonamide]",73.4 µM
23,"CN(C)CC(NS(=O)(=O)c1ccc(Oc2ccccn2)cc1)c1ccc(Cl)c(Cl)c1 (centres unmarked) [Compound 211, N-(1-(3,4-dichlorophenyl)-2-(dimethylamino)ethyl)-4-(pyridin-2-yloxy)benzenesulfonamide]",75 µM
24,"CC[C@H](C)[C@H](NS(=O)(=O)c1ccc(OC(F)(F)F)cc1)C(=O)OC(C)(C)C [Compound 7, Tert-butyl ((4-(trifluoromethoxy)phenyl)sulfonyl)-L-isoleucinate]",57.9 µM
25,"CC(C)CC(CCO)NS(=O)(=O)c1ccc(OC(F)(F)F)cc1 (centres unmarked) [Compound 10, N-(1-hydroxy-5-methylhexan-3-yl)-4-(trifluoromethoxy)benzenesulfonamide]",5.47 µM

# Other lines, results leading:
row,GI50,Compound
1,12.7 µM,"CN(C)CC(NS(=O)(=O)c1ccc(OC(F)(F)F)cc1)c1ccc(Cl)c(Cl)c1 (single isomer, unassigned) [Compound 148, N-(1-(3,4-dichlorophenyl)-2-(dimethylamino)ethyl)-4-(trifluoromethoxy)benzenesulfonamide]"
2,43.4 µM,"O=S(=O)(N[C@H](CO)c1ccc(Cl)c(Cl)c1)c1ccc(OC(F)(F)F)cc1 [Compound 122, (S)—N-(1-(3,4-dichlorophenyl)-2-hydroxyethyl)-4-(trifluoromethoxy)benzenesulfonamide]"
3,38.5 µM,"CN(C)C(=O)C(NS(=O)(=O)c1ccc(OC(F)(F)F)cc1)c1ccc(Cl)c(Cl)c1 (centres unmarked) [Compound 255, 2-(3,4-dichlorophenyl)-N,N-dimethyl-2-((4-(trifluoromethoxy)phenyl)sulfonamido)acetamide]"
4,40.1 µM,"O=S(=O)(NC(c1ccc(F)c(C(F)(F)F)c1)C1CC1)c1ccc(OC(F)(F)F)cc1 (centres unmarked) [Compound 34, N-(cyclopropyl(4-fluoro-3-(trifluoromethyl)phenyl)methyl)-4-(trifluoromethoxy)benzenesulfonamide]"
5,11.3 µM,"CN1CCN(CC(NS(=O)(=O)c2ccc(Oc3ccc(C(F)(F)F)cc3)cc2)c2ccc(Cl)cc2)CC1 (centres unmarked) [Compound 235, N-(1-(4-chlorophenyl)-2-(4-methylpiperazin-1-yl)ethyl)-4-(4-(trifluoromethyl)phenoxy)benzenesulfonamide]"
6,75 µM,"O=S(=O)(NC(c1ccc(Cl)cc1)C1CCCC1)c1ccc(OC(F)(F)F)cc1 (centres unmarked) [Compound 86, N-((4-chlorophenyl)(cyclopentyl)methyl)-4-(trifluoromethoxy)benzenesulfonamide]"
7,46 µM,"CCOC(=O)C(Cc1ccccc1Cl)NS(=O)(=O)c1ccc(OC(F)(F)F)cc1 (centres unmarked) [Compound 45, Ethyl 3-(2-chlorophenyl)-2-((4-(trifluoromethoxy)phenyl)sulfonamido)propanoate]"
8,38.3 µM,"CCOc1ccc(Cl)cc1CCNS(=O)(=O)c1ccc(OC(F)(F)F)cc1 [Compound 29, N-(5-chloro-2-ethoxyphenethyl)-4-(trifluoromethoxy)benzenesulfonamide]"
9,35 µM,"CC[C@H](NS(=O)(=O)c1ccc(OC(F)(F)F)cc1)c1cc(F)ccc1F [Compound 66, (S)—N-(1-(2,5-difluorophenyl)propyl)-4-(trifluoromethoxy)benzenesulfonamide]"
10,23.4 µM,"CN1CCN(CC(NS(=O)(=O)c2ccc(OC(F)(F)F)cc2)c2ccc(Cl)cc2)CC1 (centres unmarked) [Compound 184, N-(1-(4-chlorophenyl)-2-(4-methylpiperazin-1-yl)ethyl)-4-(trifluoromethoxy)benzenesulfonamide]"
11,34.7 µM,"O=S(=O)(N[C@@H](CCO)c1ccccc1)c1ccc(OC(F)(F)F)cc1 [Compound 12, (S)—N-(3-hydroxy-1-phenylpropyl)-4-(trifluoromethoxy)benzenesulfonamide]"
12,57 µM,"CN(C)CC(NS(=O)(=O)c1ccc(OC(F)(F)F)cc1)c1ccc(Cl)cc1 (centres unmarked) [Compound 125, N-(1-(4-chlorophenyl)-2-(dimethylamino)ethyl)-4-(trifluoromethoxy)benzenesulfonamide]"

# Same assay, conditions: LNCaP cell line, 48 hours
row,GI50,Compound
1,24.9 µM,"CN(C)CC(NS(=O)(=O)c1ccc(OC(F)(F)F)cc1)c1cccc(C(F)(F)F)c1 (single isomer, unassigned) [Compound 177, N-(2-(dimethylamino)-1-(3-(trifluoromethyl)phenyl)ethyl)-4-(trifluoromethoxy)benzenesulfonamide]"
